Reference: ChEMBL document CHEMBL1201862, “PubChem BioAssay data set” (2004)
Values joined by “and” are separate entries in the source; they are usually repeats but may differ in a detail not shown here. Identical values can stand only once.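 Test compounds were applied to cells in 96-well plates for 48 hours at 5 doses. The concentration for 50% growth inhibition is given as GI50.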 Active and inactive are the calls of the source. Rule as the data show it: active = GI50 up to about 1.1 µM and inactive = higher.

Columns and labels:
Assay in all cases: inhibition of tumour cell growth, NCI panel, 48 h
[1] = tested on: A498
[2] = tested on: A549
[3] = tested on: BT-549
[4] = tested on: CAKI-1
[5] = tested on: HCT-116
[6] = tested on: HCT-15
[7] = tested on: M14
[8] = tested on: MCF7
[9] = tested on: NCI-H522
[10] = tested on: OVCAR-4
[11] = tested on: PC-3
[12] = tested on: SK-MEL-28
[13] = tested on: SNB-75
[14] = tested on: SW-620
[15] = tested on: TK-10
[16] = tested on: HL-60
[17] = tested on: HT-29
[18] = tested on: LOX IMVI
[19] = tested on: SR

Compound | GI50 [1] | GI50 [2] | GI50 [3] | GI50 [4] | GI50 [5] | GI50 [6] | GI50 [7] | GI50 [8] | GI50 [9] | GI50 [10] | GI50 [11] | GI50 [12] | GI50 [13] | GI50 [14] | GI50 [15] | GI50 [16] | GI50 [17] | GI50 [18] | GI50 [19]
CCCCCCCCCc1nn2c(Cc3ccccc3)nnc2s1 | 18.2 µM (inactive) | 20.5 µM (inactive) | 18.8 µM (inactive) | 30.3 µM (inactive) | 18 µM (inactive) | 19.5 µM | 20.8 µM (inactive) | 41.1 µM (inactive) | 14 µM (inactive) | 20 µM (inactive) | 22.1 µM (inactive) | 17.7 µM (inactive) | 26.4 µM (inactive) | 17.6 µM (inactive) | 24.6 µM (inactive) |  |  |  | 
O=c1[nH]c2cc([N+](=O)[O-])c(N/N=C/c3ccc(Cl)cc3Cl)c([N+](=O)[O-])c2[nH]1 | 14.3 µM (inactive) | 37.9 µM (inactive) | > 100 µM (inactive) | > 100 µM (inactive) | 25.7 µM (inactive) | 40.3 µM | > 100 µM (inactive) | 42.6 µM (inactive) | 31.1 µM (inactive) | 13.6 µM (inactive) | > 100 µM (inactive) | > 100 µM (inactive) | > 100 µM (inactive) | 26.7 µM (inactive) | 31.6 µM (inactive) | > 100 µM (inactive) | > 100 µM (inactive) | 18.5 µM (inactive) | 
CCOC(=O)Nc1ccc2c(c1)c(CCCCCCc1nc3ccccc3c3ccc(NC(=O)OCC)cc13)nc1ccccc12 | 31.3 µM (inactive) | 70 µM (inactive) |  | 34.8 µM (inactive) | 54.3 µM (inactive) | > 100 µM | 29.1 µM (inactive) | > 100 µM (inactive) | 22.9 µM (inactive) | 29.3 µM (inactive) | > 100 µM (inactive) | 52.6 µM (inactive) | 16.3 µM (inactive) | > 100 µM (inactive) | 26.2 µM (inactive) | > 100 µM (inactive) | > 100 µM (inactive) | 21.6 µM (inactive) | > 100 µM (inactive)
Cc1ccc2[nH]c(=N/c3ccccc3C)/c(=N\c3ccccc3C)[nH]c2c1 | 26.9 µM (inactive) | 20.5 µM (inactive) |  | 27.9 µM (inactive) | 17.7 µM (inactive) | 22.3 µM | 43.8 µM (inactive) | 77.3 µM (inactive) | 10.2 µM (inactive) | 47.2 µM (inactive) | 31.3 µM (inactive) | 64.4 µM (inactive) | 34.7 µM (inactive) | 32.3 µM (inactive) | 38.5 µM (inactive) | 46.2 µM (inactive) | 23 µM (inactive) | 20 µM (inactive) | > 100 µM (inactive)
Cc1nc(-c2cc3c(ccc4ccccc43)oc2=O)cs1 |  | > 100 µM (inactive) | 23.7 µM (inactive) | > 100 µM (inactive) | > 100 µM (inactive) | > 100 µM | 83.9 µM (inactive) | > 100 µM (inactive) | 35.2 µM (inactive) | 37.7 µM (inactive) | 70.8 µM (inactive) | > 100 µM (inactive) | 36.6 µM (inactive) | > 100 µM (inactive) | 46.7 µM (inactive) | > 100 µM (inactive) | > 100 µM (inactive) | > 100 µM (inactive) | > 100 µM (inactive)
COC(=O)c1ccc(-c2nc(C#N)c(N)o2)cc1 |  | > 100 µM (inactive) | 23.8 µM (inactive) | > 100 µM (inactive) | > 100 µM (inactive) | > 100 µM | > 100 µM (inactive) | > 100 µM (inactive) | 39.4 µM (inactive) | > 100 µM (inactive) | > 100 µM (inactive) | > 100 µM (inactive) |  | > 100 µM (inactive) | > 100 µM (inactive) |  | > 100 µM (inactive) | > 100 µM (inactive) | > 100 µM (inactive)
Cc1cn(CC2=NCC(C)(C)CN2)c(=O)[nH]c1=O | > 100 µM (inactive) | > 100 µM (inactive) | > 100 µM (inactive) |  | > 100 µM (inactive) | > 100 µM | > 100 µM (inactive) | > 100 µM (inactive) | > 100 µM (inactive) |  | > 100 µM (inactive) | > 100 µM (inactive) | > 100 µM (inactive) | > 100 µM (inactive) | > 100 µM (inactive) | > 100 µM (inactive) | > 100 µM (inactive) | > 100 µM (inactive) | 
CCN(CC)CCCNc1nncc2cc3c([nH]c4ccccc43)c(C)c12 | 15.4 µM (inactive) | 10.8 µM (inactive) | 17.9 µM (inactive) | 33.4 µM (inactive) | 6.01 µM (inactive) | 16 µM | 20.5 µM (inactive) | 13.6 µM (inactive) | 4.15 µM (inactive) |  | 8.13 µM (inactive) | 17.7 µM (inactive) | 13.2 µM (inactive) | 4.4 µM (inactive) | 20.9 µM (inactive) | 5.02 µM (inactive) | 4.03 µM (inactive) | 5.18 µM (inactive) | 
O=[N+]([O-])c1ccc(OCc2nnc(CCCCCCCCc3nnc(COc4ccc([N+](=O)[O-])cc4)o3)o2)cc1 | > 100 µM (inactive) | > 100 µM (inactive) | > 100 µM (inactive) |  | 77.6 µM (inactive) | > 100 µM | > 100 µM (inactive) | > 100 µM (inactive) | > 100 µM (inactive) | > 100 µM (inactive) | > 100 µM (inactive) | > 100 µM (inactive) | > 100 µM (inactive) | > 100 µM (inactive) | > 100 µM (inactive) |  | > 100 µM (inactive) |  | 
COc1ccc(-c2nnc(CCCCCCCCc3nnc(-c4ccc(OC)cc4)o3)o2)cc1 | 44.4 µM (inactive) | > 100 µM (inactive) | 16.7 µM (inactive) | > 100 µM (inactive) | 60.7 µM (inactive) | > 100 µM | > 100 µM (inactive) | > 100 µM (inactive) | 84.3 µM (inactive) | > 100 µM (inactive) | > 100 µM (inactive) | > 100 µM (inactive) | 27 µM (inactive) | > 100 µM (inactive) | 65.2 µM (inactive) | > 100 µM (inactive) | > 100 µM (inactive) | 91.4 µM (inactive) | 
Cn1cnc2c(sc3nc4ccccc4n32)c1=N | > 100 µM (inactive) | > 100 µM (inactive) | > 100 µM (inactive) | > 100 µM (inactive) | > 100 µM (inactive) | > 100 µM | > 100 µM (inactive) | > 100 µM (inactive) |  | > 100 µM (inactive) | > 100 µM (inactive) | > 100 µM (inactive) | 11.2 µM (inactive) | > 100 µM (inactive) | > 100 µM (inactive) | > 100 µM (inactive) | > 100 µM (inactive) | > 100 µM (inactive) | 
CC(C)c1c(O[Si](C(C)C)(C(C)C)C(C)C)c2c3c(ccc4c3c1OC4(C)C)C(C)CC2 (stereo not drawn) | > 100 µM (inactive) | > 100 µM (inactive) |  | > 100 µM (inactive) | > 100 µM (inactive) | > 100 µM | > 100 µM (inactive) | > 100 µM (inactive) | > 100 µM (inactive) | > 100 µM (inactive) | > 100 µM (inactive) | > 100 µM (inactive) | 21.3 µM (inactive) | > 100 µM (inactive) | > 100 µM (inactive) | > 100 µM (inactive) | > 100 µM (inactive) | > 100 µM (inactive) | > 100 µM (inactive)
Cn1c(N/N=C/c2ccccc2)nc(-c2ccc([N+](=O)[O-])cc2)c(C#N)c1=O | 65.8 µM (inactive) | 28.8 µM (inactive) |  | 54.5 µM (inactive) | 27.6 µM (inactive) | 30.5 µM | > 100 µM (inactive) | 13.1 µM (inactive) | 23.1 µM (inactive) | 29 µM (inactive) | 59.6 µM (inactive) | > 100 µM (inactive) | 88.5 µM (inactive) | 65.8 µM (inactive) | 55 µM (inactive) | 11 µM (inactive) | 45.7 µM (inactive) | 61.8 µM (inactive) | 2.63 µM (inactive)
CC1OC(OC2C(OC(=O)[C@]34CCC(C)(C)C[C@H]3C3=CC[C@@H]5[C@@]6(C)CC[C@H](OC7OC(CO)C(O)C(O)C7OC7OC(CO)C(O)C(O)C7O)C(C)(C)[C@@H]6CC[C@@]5(C)[C@]3(C)CC4)OCC(O)C2O)C(O)C(O)C1OC1OCC(O)C(OC2OCC(O)C(O)C2O)C1O (stereo partly drawn) | 2.17 µM (inactive) and 2.02 µM (inactive) | 3.01 µM (inactive) and 3.03 µM (inactive) | 3.51 µM (inactive) and 3.82 µM (inactive) | 3.6 µM (inactive) and 4 µM (inactive) | 5.04 µM (inactive) and 3.85 µM (inactive) | 12.9 µM and 13 µM | 1.97 µM (inactive) and 1.79 µM (inactive) |  | 2.65 µM (inactive) and 2.49 µM (inactive) | 7.19 µM (inactive) and 5.41 µM (inactive) | 6.62 µM (inactive) and 5.32 µM (inactive) | 2.09 µM (inactive) and 2.18 µM (inactive) | 7.93 µM (inactive) and 5.86 µM (inactive) | 10.4 µM (inactive) and 11 µM (inactive) | 8.41 µM (inactive) and 8.63 µM (inactive) |  | 3.02 µM (inactive) and 3.33 µM (inactive) | 9.98 µM (inactive) and 11.1 µM (inactive) | 2.19 µM (inactive) and 3.06 µM (inactive)
COC(=O)C1=C(CCCCO[Si](C)(C)C(C)(C)C)NC(=O)N2[C@H](CCOCc3ccccc3)CC[C@@H]12 | > 100 µM (inactive) | 26.7 µM (inactive) | 45.8 µM (inactive) | 34 µM (inactive) | 24 µM (inactive) | 40.6 µM | 58.3 µM (inactive) | 34.4 µM (inactive) | 15.5 µM (inactive) | > 100 µM (inactive) | 26.9 µM (inactive) | > 100 µM (inactive) | 43.7 µM (inactive) |  | > 100 µM (inactive) |  |  |  | 
